Data on 21 molecules can be found in patent publication US20260137703A1, “2-AMINO-PYRIDO[2,3-D]PYRIMIDIN-7(8H)-ONE AND 7-AMINO-1-PYRIMIDO[4,5-D]PYRIMIDIN-2(1 H)-ONE DERIVATIVES AS EGFR INHIBITORS FOR THE TREATMENT OF CANCER” (Cancer Research Technology Limited, priority 2022, published 2026).

In test [1] the target is T1, Phospho-EGFR (Tyr1068) in A431 cells (Homo sapiens, UniProt P00533).
T1 construct: endogenous in cells; host or cells: A431
As to the kind of experiment: HTRF pEGFR/total EGFR in A431 cells with EGF stimulation. Type of test: cell-based. The following applies: ratio pEGFR/total EGFR, compound 2.5 hours then 100 ng/ml EGF 30 mins. On the procedure:
(§1) Cells were plated at 20,000 cells per well in 96 well plates and placed at 37° C. 5% CO2. Once adhered (after 24 h) cells were treated with compounds dissolved in DMSO at a final concentration of 0.1% DMSO in media. Compounds were diluted in media then added to cells for 2.5 hours in duplicate, 100 ng/ml EGF (ThermoFisher, PHG0311) was added to all compound treated cells as well as a control for 30 mins. Compound and media were removed from the cells, then 50 ul of HTRF lysis buffer was added (lysis buffer was diluted from 4× stock to 1× in DI water, with 1% blocking agent also added). Cells were lysed on a plate shaker (2000 rpm) for 30 minutes at room temperature. pEGFR expression was monitored using the Cisbio Phospho-EGFR (Tyr1068) cellular kit (64EG1PEH). Total EGFR expression was monitored using the Cisbio Total EGFR cellular kit (64NG1PEH) as per manufacturer's instructions. Fluorescence emission was read at two different wavelengths (665 nm and 620 nm) on a PheraStar. Results were calculated as ratio of pEGFR/total EGFR and then percentage of 0 μM control.

Test [2] deals with T2, Phospho-EGFR (Tyr1068) in H1975 C797S cells (CRISPR-edited EGFR C797S) (Homo sapiens, UniProt P00533, C797S/L858R/T790M).
T2 construct: host or cells: H1975 C797S (CRISPR-edited)
As to the kind of experiment: HTRF pEGFR/total EGFR in H1975 C797S cells. It is filed as cell-based. The following applies: ratio pEGFR/total EGFR, compound 3 hours. On the procedure: as §1, with “[…].” for “Cells were plated at 20,000 cells per well in 96 well plates and placed at 37° C. 5% CO2.”, “3” for “2.5”, “duplicate.” for “duplicate, 100 ng/ml EGF (ThermoFisher, PHG0311) was added to all compound treated cells as well as a control for 30 mins.”
In general terms: Time-resolved FRET reads energy transfer from a long-lived donor to a nearby acceptor.

For test [3], the target named is T3, Phospho-EGFR (Tyr1068) in H1975 cells (Homo sapiens, UniProt P00533, L858R/T790M).
T3 construct: host or cells: H1975
As to the kind of experiment: HTRF pEGFR/total EGFR in H1975 cells. Type of test: cell-based. Particulars: ratio pEGFR/total EGFR, compound 3 hours. How it is done:
H1975 cells (ATCC CRL-5908) were plated at 20,000 cells per well in 96 well plates and placed at 37° C. 5% CO2. Once adhered (after 24 h) cells were treated with compounds dissolved in DMSO at a final concentration of 0.1% DMSO in media. Compounds were diluted in media then added to cells for 3 hours in duplicate. Compound and media were removed from the cells, then 50 ul of HTRF lysis buffer is added (lysis buffer was diluted from 4× stock to 1× in DI water, with 1% blocking agent also added). Cells were lysed on a plate shaker (2000 rpm) for 30 minutes at room temperature. pEGFR expression was monitored using the Cisbio Phospho-EGFR (Tyri068) cellular kit (64EG1PEH). Total EGFR expression was monitored using the Cisbio Total EGFR cellular kit (64NG1PEH) as per manufacturer's instructions. Fluorescence emission was read at two different wavelengths (665 nm and 620 nm) on a PheraStar. Results were calculated as ratio of pEGFR/total EGFR and then percentage of 0 μM control.

Test [4] deals with CtermHisTag-mEGFR Wild type (Homo sapiens, UniProt P00533). As to the kind of experiment: biochemical.
Sequence of CtermHisTag-mEGFR Wild type (P00533 whole entry): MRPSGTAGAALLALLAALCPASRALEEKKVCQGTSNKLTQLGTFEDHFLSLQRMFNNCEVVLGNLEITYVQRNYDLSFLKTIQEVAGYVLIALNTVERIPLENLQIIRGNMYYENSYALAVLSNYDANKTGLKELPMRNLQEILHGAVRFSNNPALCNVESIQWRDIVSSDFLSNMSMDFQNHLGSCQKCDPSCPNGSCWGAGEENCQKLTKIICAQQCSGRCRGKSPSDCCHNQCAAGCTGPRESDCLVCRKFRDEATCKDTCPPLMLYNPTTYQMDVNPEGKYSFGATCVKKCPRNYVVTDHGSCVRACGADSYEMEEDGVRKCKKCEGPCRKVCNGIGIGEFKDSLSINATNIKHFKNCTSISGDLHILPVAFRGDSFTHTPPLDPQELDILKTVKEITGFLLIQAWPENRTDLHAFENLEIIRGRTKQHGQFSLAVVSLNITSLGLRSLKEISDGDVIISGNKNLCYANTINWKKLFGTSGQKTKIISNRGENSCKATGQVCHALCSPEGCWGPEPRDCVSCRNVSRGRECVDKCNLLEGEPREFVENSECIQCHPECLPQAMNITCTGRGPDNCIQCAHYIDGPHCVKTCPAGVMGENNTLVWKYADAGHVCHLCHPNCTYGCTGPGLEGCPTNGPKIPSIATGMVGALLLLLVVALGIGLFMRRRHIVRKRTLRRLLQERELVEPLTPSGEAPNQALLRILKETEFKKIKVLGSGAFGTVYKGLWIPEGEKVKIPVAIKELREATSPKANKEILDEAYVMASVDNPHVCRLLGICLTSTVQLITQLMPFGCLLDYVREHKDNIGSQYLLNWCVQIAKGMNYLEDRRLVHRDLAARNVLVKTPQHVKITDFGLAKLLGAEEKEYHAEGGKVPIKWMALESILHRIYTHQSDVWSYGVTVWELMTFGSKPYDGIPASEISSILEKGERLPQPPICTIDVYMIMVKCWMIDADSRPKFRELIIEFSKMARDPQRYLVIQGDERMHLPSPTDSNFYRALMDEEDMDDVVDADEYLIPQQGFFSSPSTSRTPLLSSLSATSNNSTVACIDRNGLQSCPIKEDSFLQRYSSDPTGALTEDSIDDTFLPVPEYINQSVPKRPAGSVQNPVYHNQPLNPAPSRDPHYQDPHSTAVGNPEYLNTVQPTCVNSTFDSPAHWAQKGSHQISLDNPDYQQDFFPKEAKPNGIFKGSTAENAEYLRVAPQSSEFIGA

T1 sequence (P00533 25-1210): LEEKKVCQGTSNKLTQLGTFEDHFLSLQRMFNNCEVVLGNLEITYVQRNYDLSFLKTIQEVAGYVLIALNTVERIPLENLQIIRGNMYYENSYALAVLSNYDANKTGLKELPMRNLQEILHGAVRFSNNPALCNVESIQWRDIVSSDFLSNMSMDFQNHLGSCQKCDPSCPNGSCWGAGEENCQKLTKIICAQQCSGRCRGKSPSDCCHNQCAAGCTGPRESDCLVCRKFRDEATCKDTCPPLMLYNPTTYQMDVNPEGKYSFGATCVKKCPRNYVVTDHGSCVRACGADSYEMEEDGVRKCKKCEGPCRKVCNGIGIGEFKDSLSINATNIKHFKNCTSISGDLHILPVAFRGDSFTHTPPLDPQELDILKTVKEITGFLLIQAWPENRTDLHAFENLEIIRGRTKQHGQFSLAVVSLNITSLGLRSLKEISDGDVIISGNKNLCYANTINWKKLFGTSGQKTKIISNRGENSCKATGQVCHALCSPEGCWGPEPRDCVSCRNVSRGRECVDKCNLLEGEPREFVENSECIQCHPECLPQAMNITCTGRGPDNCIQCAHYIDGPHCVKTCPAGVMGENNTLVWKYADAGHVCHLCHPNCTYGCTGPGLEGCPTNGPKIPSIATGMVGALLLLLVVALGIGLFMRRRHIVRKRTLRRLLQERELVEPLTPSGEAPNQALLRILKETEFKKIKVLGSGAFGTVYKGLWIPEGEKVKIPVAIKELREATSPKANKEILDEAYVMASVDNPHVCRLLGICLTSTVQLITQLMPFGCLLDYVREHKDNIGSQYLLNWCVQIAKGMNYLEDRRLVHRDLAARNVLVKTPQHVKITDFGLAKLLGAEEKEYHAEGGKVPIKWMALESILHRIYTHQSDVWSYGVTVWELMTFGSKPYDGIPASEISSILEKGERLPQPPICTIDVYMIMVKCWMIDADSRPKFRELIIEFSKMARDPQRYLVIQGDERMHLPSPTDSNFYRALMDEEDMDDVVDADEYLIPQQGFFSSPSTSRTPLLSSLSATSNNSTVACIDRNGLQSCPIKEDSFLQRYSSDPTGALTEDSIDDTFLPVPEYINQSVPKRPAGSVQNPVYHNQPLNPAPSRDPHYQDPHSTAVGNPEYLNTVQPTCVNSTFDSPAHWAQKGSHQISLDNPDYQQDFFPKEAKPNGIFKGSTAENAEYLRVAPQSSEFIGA
T3 sequence (P00533 25-1210 T790M/L858R): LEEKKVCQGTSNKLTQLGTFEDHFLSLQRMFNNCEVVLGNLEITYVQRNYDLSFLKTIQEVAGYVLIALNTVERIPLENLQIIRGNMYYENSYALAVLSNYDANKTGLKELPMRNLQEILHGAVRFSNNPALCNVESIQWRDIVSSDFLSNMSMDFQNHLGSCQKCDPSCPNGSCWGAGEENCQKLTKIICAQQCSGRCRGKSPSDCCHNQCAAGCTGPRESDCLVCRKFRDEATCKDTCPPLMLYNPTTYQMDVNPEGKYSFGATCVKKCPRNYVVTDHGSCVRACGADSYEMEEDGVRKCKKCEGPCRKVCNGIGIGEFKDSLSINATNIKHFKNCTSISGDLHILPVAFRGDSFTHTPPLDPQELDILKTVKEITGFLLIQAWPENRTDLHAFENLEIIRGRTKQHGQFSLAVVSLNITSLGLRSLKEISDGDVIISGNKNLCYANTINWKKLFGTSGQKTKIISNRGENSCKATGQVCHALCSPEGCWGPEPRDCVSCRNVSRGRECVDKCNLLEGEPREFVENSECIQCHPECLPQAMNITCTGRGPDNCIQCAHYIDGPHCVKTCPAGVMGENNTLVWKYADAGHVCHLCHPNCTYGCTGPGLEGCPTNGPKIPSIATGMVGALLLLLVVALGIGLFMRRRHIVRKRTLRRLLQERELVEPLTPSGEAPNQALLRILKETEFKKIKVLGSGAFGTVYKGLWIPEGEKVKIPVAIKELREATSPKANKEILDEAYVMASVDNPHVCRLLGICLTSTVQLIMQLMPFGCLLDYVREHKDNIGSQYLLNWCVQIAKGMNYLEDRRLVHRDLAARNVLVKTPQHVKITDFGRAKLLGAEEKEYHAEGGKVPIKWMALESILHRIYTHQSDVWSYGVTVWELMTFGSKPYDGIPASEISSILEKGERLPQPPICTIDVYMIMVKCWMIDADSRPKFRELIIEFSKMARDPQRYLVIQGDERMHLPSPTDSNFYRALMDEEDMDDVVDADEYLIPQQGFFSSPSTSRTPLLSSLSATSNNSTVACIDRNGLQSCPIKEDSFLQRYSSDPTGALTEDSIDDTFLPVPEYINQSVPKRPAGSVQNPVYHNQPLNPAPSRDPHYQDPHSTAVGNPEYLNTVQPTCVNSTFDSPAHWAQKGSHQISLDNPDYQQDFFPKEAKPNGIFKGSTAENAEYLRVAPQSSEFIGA
T2 sequence (P00533 25-1210 T790M/C797S/L858R): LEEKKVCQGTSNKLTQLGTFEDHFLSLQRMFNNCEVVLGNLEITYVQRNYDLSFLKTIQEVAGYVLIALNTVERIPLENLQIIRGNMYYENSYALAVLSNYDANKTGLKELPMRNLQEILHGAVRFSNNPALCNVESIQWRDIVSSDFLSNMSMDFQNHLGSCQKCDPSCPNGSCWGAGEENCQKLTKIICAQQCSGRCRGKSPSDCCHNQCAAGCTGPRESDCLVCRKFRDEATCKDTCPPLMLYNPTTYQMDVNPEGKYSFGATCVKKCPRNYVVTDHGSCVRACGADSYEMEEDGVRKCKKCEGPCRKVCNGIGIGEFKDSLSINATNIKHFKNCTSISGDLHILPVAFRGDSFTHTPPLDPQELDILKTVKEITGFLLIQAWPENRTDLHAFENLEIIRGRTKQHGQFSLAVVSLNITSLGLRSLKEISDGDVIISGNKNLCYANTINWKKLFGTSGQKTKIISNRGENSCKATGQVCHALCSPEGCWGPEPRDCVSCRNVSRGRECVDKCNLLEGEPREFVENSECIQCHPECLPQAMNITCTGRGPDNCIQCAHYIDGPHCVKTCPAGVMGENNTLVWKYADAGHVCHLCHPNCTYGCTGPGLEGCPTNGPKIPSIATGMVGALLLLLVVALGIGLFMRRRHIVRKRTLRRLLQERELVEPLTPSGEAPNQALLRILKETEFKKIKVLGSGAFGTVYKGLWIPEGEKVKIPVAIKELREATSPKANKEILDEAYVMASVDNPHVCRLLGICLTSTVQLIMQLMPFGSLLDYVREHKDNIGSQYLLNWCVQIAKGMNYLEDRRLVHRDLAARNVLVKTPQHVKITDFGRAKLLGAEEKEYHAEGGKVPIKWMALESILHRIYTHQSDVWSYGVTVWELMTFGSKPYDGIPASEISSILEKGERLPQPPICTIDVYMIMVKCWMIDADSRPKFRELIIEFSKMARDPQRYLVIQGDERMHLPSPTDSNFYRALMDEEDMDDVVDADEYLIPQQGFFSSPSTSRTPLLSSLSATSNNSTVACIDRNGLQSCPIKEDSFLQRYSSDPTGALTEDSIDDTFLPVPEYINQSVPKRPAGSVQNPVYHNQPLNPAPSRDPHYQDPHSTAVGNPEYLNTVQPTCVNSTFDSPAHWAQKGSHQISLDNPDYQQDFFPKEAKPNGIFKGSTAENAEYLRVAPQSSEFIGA

For the molecule `C#Cc1cc(=O)n(C)c2nc(Nc3ccc(N4CCN(C)CC4)c(OCCC)c3)ncc12` [Example 207, 5-Ethynyl-8-methyl-2-((4-(4-methylpiperazin-1-yl)-3-propoxyphenyl)amino)pyrido[2,3-d]pyrimidin-7(8H)-one], the IC50 is 0.5 to 1 µM in test [1], below 0.5 µM in test [2], below 0.5 µM in test [3] and below 1 µM in test [4].

As to `C#Cc1cc(=O)n(C2CCCC2)c2nc(Nc3cccc4c3CN(C)C4)ncc12` [Example 184, 8-Cyclopentyl-5-ethynyl-2-[(2-methvl-1,3-dihydroisoindol-4-yl)amino]pyrido[2,3-d]pyrimidin-7-one], the IC50 is above 3 µM in test [1], above 3 µM in test [2], above 3 µM in test [3] and 1 to 10 µM in test [4].

Consider `C#Cc1c(C)c(=O)n(Cc2cnc[nH]2)c2nc(Nc3ccc(N4CCN(C)CC4)cc3)ncc12` [Example 111, 5-ethynyl-8-(3H-imidazol-4-ylmethyl)-6-methyl-2-{[4-(4-methylpiperazin-1-yl)phenyl]amino}pyrido[2,3-d]pyrimidin-7-one], for which the IC50 in test [1] was above 3 µM; in test [2], 1 to 3 µM; in test [3], 1 to 3 µM; in test [4], 1 to 10 µM.

In the case of `C#Cc1cc(=O)n(CC2CCNC2=O)c2nc(Nc3ccc(N4CCN(C)CC4)cc3)ncc12` (centres unmarked) [Example 119, 3-[(5-ethynyl-2-{[4-(4-methylpiperazin-1-yl)phenyl]amino}-7-oxopyrido[2,3-d]pyrimidin-8-yl)methyl]pyrrolidin-2-one], the IC50 in test [1] was above 3 µM; in test [2], 0.5 to 1 µM; in test [3] it was 0.5 to 1 µM; in test [4] it was above 10 µM.

Consider `C#Cc1cc(=O)n(-c2cccc(NC(=O)COC(C)=O)c2)c2nc(Nc3ccccc3OC)ncc12` [Example 59, 2-((3-(5-Ethynyl-2-((2-methoxyphenyl)amino)-7-oxopyrido[2,3-d]pyrimidin-8(7H)-yl)phenyl)amino)-2-oxoethyl acetate], for which the IC50 in test [1] was above 3 µM; in test [2], above 3 µM; in test [3], above 3 µM; in test [4], 1 to 10 µM.

On to `C#Cc1c(C)c(=O)n(Cc2cnco2)c2nc(Nc3ccc(N4CCN(C)CC4)cc3)ncc12` [Example 176, 5-Ethynyl-6-methvl-2-{[4-(4-methylpiperazin-1-yl)phenyl]aminol}-8-(1,3-oxazol-5-ylmethyl)pyrido[2,3-d]pyrimidin-7-one], for which the IC50 in test [1] is above 3 µM; in test [2], 1 to 3 µM; in test [3] it was 1 to 3 µM; in test [4] it was below 1 µM.

Take `C#Cc1c(C)c(=O)n2c3nc(ncc13)Nc1cccc(c1)OC/C=C\C2` [Example 190, (Z)-1^5-ethynyl-1^6-methyl-1^7,1^8-dihydro-4-oxa-2-aza-1(2,8)-pyrido[2,3-d]pyrimidina-3(1,3)-benzenacyclooctaphan-6-en-1^7-one]: the half-maximal inhibitory concentration (IC50) in test [1] was above 3 µM; in test [2], 1 to 3 µM; in test [3], 1 to 3 µM; in test [4] it was above 10 µM.

Regarding `C#Cc1cc(=O)n(C2CCCC2)c2nc(Nc3ccccc3N3CCCC(CS(C)(=O)=O)C3)ncc12` (centres unmarked) [Example 202, 8-Cyclopentyl-5-ethynyl-2-({2-[3-(methanesulfonylmethyl)piperidin-1-yl]phenyl}amino)pyrido[2,3-d]pyrimidin-7-one], the concentration for half-maximal inhibition (IC50) in test [2] was above 3 µM; in test [3] it was above 3 µM; in test [4] it was above 10 µM.

Regarding `C#Cc1c(-c2c(Cl)cccc2Cl)c(=O)n(C)c2nc(Nc3cccc(CO)c3)ncc12` [Example 125, 6-(2,6-dichlorophenyl)-5-ethynyl-2-{[3-(hydroxymethyl)phenyl]amino}-8-methylpyrido[2,3-d]pyrimidin-7-one], the half-maximal inhibitory concentration (IC50) in test [1], in test [2] and in test [3] was above 3 µM throughout.

As to `C#Cc1cc(=O)n2c3nc(ncc13)Nc1ccc(N3CCN(C)CC3)c(c1)OC[C@@H]1CC[C@@H](C1)C2` [Example 233, (5^1S,5^3R)-3^5-Ethynyl-1^4-(4-methylpiperazin-1-yl)-3^7,3^8-dihydro-7-oxa-2-aza-3(2,8)-pyrido[2,3-d]pyrimidina-1(1,3)-benzena-5(1,3)-cyclopentanacycloheptaphan-3^7-one], the IC50 in test [2] is below 0.5 µM; in test [3], below 0.5 µM; in test [4], below 1 µM.

Molecule `C#Cc1c(Cc2ccccc2)c(=O)n(C)c2nc(Nc3ccc(N(C)CCN(C)C)cc3OC)ncc12` [Example 140, 6-benzyl-2-[(4-[[2-(dimethylamino)ethyl](methyl)amino]-2-methoxyphenyl)amino]-5-ethynyl-8-methylpyrido[2,3-d]pyrimidin-7-one] yielded an IC50 in test [4] of 1 to 10 µM.

`C#Cc1cc(=O)n(-c2ccc(OC)cc2OC)c2nc(Nc3ccccc3OC)ncc12` [Example 75, 8-(2,4-Dimethoxyphenyl)-5-ethynyl-2-[(2-methoxyphenyl)amino]pyrido[2,3-d]pyrimidin-7-one]: the IC50 in test [4] was above 10 µM.

`C=Cc1c(-c2ccccc2Cl)c(=O)n(C)c2nc(Nc3ccccc3OC)ncc12` [Example 161, 6-(2-chlorophenyl)-5-ethenyl-2-[(2-methoxyphenyl)amino]-8-methylpyrido[2,3-d]pyrimidin-7-one] displayed an IC50 in test [4] above 10 µM.

In test [4], `C=Cc1c(-c2c(Cl)cccc2Cl)c(=O)n(C)c2nc(Nc3cccc(CO)c3)ncc12` [Example 164, 6-(2,6-dichlorophenyl)-5-ethenyl-2-{[3-(hydroxymethyl)phenyl]amino}-8-methylpyrido[2,3-d]pyrimidin-7-one] showed an IC50 above 10 µM.

With `C=Cc1c(-c2c(Cl)cccc2Cl)c(=O)n(C)c2nc(Nc3ccccc3OC)ncc12` [Example 163, 6-(2,6-dichlorophenyl)-5-ethenyl-2-[(2-methoxyphenyl)amino]-8-methylpyrido[2,3-]pyrimidin-7-one], the IC50 in test [4] was above 10 µM.

Turning to `C#Cc1cc(=O)n(C2CCCC2)c2nc(Nc3cccc(N(C)[C@H]4CC[C@@H](CS(C)(=O)=O)CC4)c3)ncc12` [Example 204], the IC50 was above 3 µM in test [2], above 3 µM in test [3] and below 1 µM in test [4].

Molecule `C#Cc1cc(=O)n(-c2ccc(OC)cc2)c2nc(Nc3ccccc3OC)ncc12` [Example 84, 5-ethynyl-8-(4-methoxyphenyl)-2-[(2-methoxyphenyl)amino]pyrido[2,3-d]pyrimidin-7-one] returned an IC50 in test [4] above 10 µM.

The molecule `C=Cc1c(-c2ccccc2Cl)c(=O)n(C)c2nc(NCCCCN3CCN(C)CC3)ncc12` [Example 174, 6-(2-chlorophenyl)-8-methyl-2-((4-(4-methylpiperazin-1-yl)butyl)amino)-5-vinylpyrido[2,3-d]pyrimidin-7(8H)-one] had an IC50 in test [4] above 10 µM.

For `C#Cc1c(-c2ccccc2)c(=O)n(C)c2nc(Nc3ccc(N(C)CCN(C)C)cc3OC)ncc12` [Example 121, 2-[(4-[[2-(dimethylamino)ethyl](methyl)amino]-2-methoxyphenyl)amino]-5-ethynyl-8-methyl-6-phenylpyrido[2,3-d]pyrimidin-7-one], in test [4], the IC50 lay in the range of 1 to 10 µM.

As for `C#Cc1cc(=O)n(C)c2nc(Nc3ccc(N(C)CCN(C)C)cc3OC)ncc12` [Example 42, 2-[(4-{[2-(Dimethylamino)ethyl](methyl)amino}-2-methoxyphenyl)amino]-5-ethynyl-8-methylpyrido[2,3-d]pyrimidin-7-one], in test [4], the IC50 was 1 to 10 µM.

The molecule `C=Cc1cc(=O)n(-c2ccc(OC)cc2OC)c2nc(Nc3ccccc3OC)ncc12` [Example 154, 8-(2,4-dimethoxyphenyl)-5-ethenyl-2-[(2-methoxyphenyl)amino]pyrido[2,3-d]pyrimidin-7-one] came in with an IC50 in test [4] above 10 µM.

What is called IC50 is the concentration that inhibits the measured activity by half.
